Experiment [1] relates to bacteria, fungi and yeasts. As to conditions: general statement, no test described, cited from earlier work.
The subject of a further experiment is Candida albicans. Put plainly: MIC agar dilution test, yeasts. It counts as cell-based. The following applies: Candida albicans (Y); Sabouraud 4% dextrose agar buffered to pH 5.6; corrected for dilution effect of butyl polyglycol; read-out: Minimum inhibitory concentration (MIC). As to the method:
(§1) Below, the antimicrobial efficacy of isosorbide caprylate 1 in butyl polyglycol against bacteria, fungi and yeasts is examined. For the tests with bacteria, isosorbide caprylate 1 was diluted with butyl polyglycol and then, at 50° C., added to liquid CASO agar (casein-peptone agar) buffered to pH 7 (+1-0.2) in various concentrations (hereinbelow referred to as compositions B1, B2, etc.). For the tests with fungi and yeasts, isosorbide caprylate 1 was diluted with butyl polyglycol and then added to liquid Sabouraud 4% dextrose agar buffered to pH 5.6 (+1-0.2) in various concentrations (hereinbelow referred to as compositions PH1, PH2, etc.). The compositions B1, B2, etc. and PH1, PH2 etc. were each poured into Petri dishes and each inoculated with identical amounts of bacteria, fungi and yeasts. The minimum inhibitory concentration (MIC) is the concentration at which inhibition of the growth of the bacteria, fungi and yeasts in the compositions B1, B2, etc. and PH1, PH2, etc. occurs.
(§2) Analogously to the determination of the antimicrobial activity of isosorbide caprylate 1, the antimicrobial activity firstly of a mixture comprising 89.6% by weight of isosorbide dicaprylate and 9.4% by weight of isosorbide monocaprylate (remainder: 1% by weight) (hereinbelow referred to as “isosorbide dicaprylate”) and, secondly, pure isosorbide was determined in further test series.
(In general: In agar dilution, organisms are placed on agar that contains the substance at set levels.)

Another experiment has as its system Fusarium solani. In words: MIC agar dilution test, fungi. The following applies: Fusarium solani (F); Sabouraud 4% dextrose agar buffered to pH 5.6; corrected for dilution effect of butyl polyglycol; read-out: Minimum inhibitory concentration (MIC). It is filed as cell-based. As to the method: as §1, §2
In the next experiment the test system is Penicillium funicolosium. Put plainly: MIC agar dilution test, fungi. It is filed as cell-based. The following applies: Penicillium funicolosium (F); Sabouraud 4% dextrose agar buffered to pH 5.6; corrected for dilution effect of butyl polyglycol; read-out: Minimum inhibitory concentration (MIC). As for the experimental part:
as §1, §2

For another experiment, the system named is Penicillium minioluteum. Put plainly: MIC agar dilution test, fungi. It is filed as cell-based. The following applies: Talaromyces minioluteus; Penicillium minioluteum (F); Sabouraud 4% dextrose agar buffered to pH 5.6; corrected for dilution effect of butyl polyglycol; read-out: Minimum inhibitory concentration (MIC). As for the experimental part:
as §1, §2

In a further experiment the test system is Aspergillus terreus. In words: MIC agar dilution test, fungi. As to conditions: Aspergillus terreus (F); Sabouraud 4% dextrose agar buffered to pH 5.6; corrected for dilution effect of butyl polyglycol; read-out: Minimum inhibitory concentration (MIC). It counts as cell-based. As for the experimental part: as §1, §2
The next experiment deals with Aspergillus brasiliensis. Put plainly: MIC agar dilution test, fungi. The following applies: Aspergillus brasiliensis (F); Sabouraud 4% dextrose agar buffered to pH 5.6; corrected for dilution effect of butyl polyglycol; read-out: Minimum inhibitory concentration (MIC). It counts as cell-based. As to the method: as §1, §2
The subject of the next experiment is Klebsiella pneumoniae. Put plainly: MIC agar dilution test, bacteria. As to conditions: Klebsiella pneumoniae (B); CASO agar buffered to pH 7; corrected for dilution effect of butyl polyglycol; read-out: Minimum inhibitory concentration (MIC). It is filed as cell-based. As to the method: as §1, §2
Another experiment relates to Citrobacter freundii. In words: MIC agar dilution test, bacteria. It is filed as cell-based. The following applies: Citrobacter freundii (B); CASO agar buffered to pH 7; corrected for dilution effect of butyl polyglycol; read-out: Minimum inhibitory concentration (MIC). As for the experimental part: as §1, §2
Another experiment concerns Proteus vulgaris. In words: MIC agar dilution test, bacteria. It counts as cell-based. The following applies: Proteus vulgaris (B); CASO agar buffered to pH 7; corrected for dilution effect of butyl polyglycol; read-out: Minimum inhibitory concentration (MIC). As to the method:
as §1, §2

The subject of the next experiment is Enterobacter aerogenes. Put plainly: MIC agar dilution test, bacteria. It is filed as cell-based. As to conditions: Klebsiella aerogenes; Enterobacter aerogenes (B); CASO agar buffered to pH 7; corrected for dilution effect of butyl polyglycol; read-out: Minimum inhibitory concentration (MIC). As for the experimental part: as §1, §2
The subject of a further experiment is Staphylococcus aureus. In words: MIC agar dilution test, bacteria. It is filed as cell-based. The following applies: Staphylococcus aureus (B); CASO agar buffered to pH 7; corrected for dilution effect of butyl polyglycol; read-out: Minimum inhibitory concentration (MIC). As for the experimental part: as §1, §2
A further experiment has as its system Pseudomonas oleovorans. In words: MIC agar dilution test, bacteria. It is filed as cell-based. As to conditions: Ectopseudomonas oleovorans; Pseudomonas oleovorans (B); CASO agar buffered to pH 7; corrected for dilution effect of butyl polyglycol; read-out: Minimum inhibitory concentration (MIC). As to the method:
as §1, §2

A further experiment deals with Pseudomonas aeruginosa. In words: MIC agar dilution test, bacteria. It is filed as cell-based. The following applies: Pseudomonas aeruginosa (B); CASO agar buffered to pH 7; corrected for dilution effect of butyl polyglycol; read-out: Minimum inhibitory concentration (MIC). As to the method:
as §1, §2

A further experiment has as its system Escherichia coli. Put plainly: MIC agar dilution test, bacteria. It is filed as cell-based. As to conditions: Escherichia coli (B); CASO agar buffered to pH 7; corrected for dilution effect of butyl polyglycol; read-out: Minimum inhibitory concentration (MIC). As for the experimental part:
as §1, §2

The test system of experiment [2] is bacteria, fungi and yeasts. Put plainly: Antimicrobial efficacy, overall statement. It is filed as cell-based. As for the experimental part: as §1, §2

Values after ≈ are worked out from the molar mass of the structure shown. Like-named read-outs stand apart in the source and are kept apart here.

Take `CCCCCCCC(=O)O` [caprylic acid]: the results for the “antimicrobial activity (in words)” value in experiment [1] (at a pH of 6 or above) and in experiment [1] were “no antimicrobial activity” and “antimicrobially effective”, respectively.

As to `O[C@@H]1CO[C@H]2[C@@H]1OC[C@@H]2O` [isosorbide], the MIC with Candida albicans, with Fusarium solani, in the experiment with Penicillium funicolosium, with Penicillium minioluteum, in the experiment on Aspergillus terreus and in the experiment on Aspergillus brasiliensis was 10000 µg/mL (≈ 68.4 mM) each time. Further, the MIC in the experiment with Klebsiella pneumoniae, with Citrobacter freundii, in the experiment on Proteus vulgaris, in the experiment with Enterobacter aerogenes, in the experiment with Staphylococcus aureus and with Pseudomonas oleovorans was 10000 µg/mL (≈ 68.4 mM) in each case. Also, the MIC in the experiment on Pseudomonas aeruginosa and in the experiment with Escherichia coli was 10000 µg/mL (≈ 68.4 mM) each time. For the same compound, the “antimicrobial activity (in words)” value in experiment [2] (summary of MIC results of Tables 1 and 2) is “neither isosorbide nor isosorbide dicaprylate is antimicrobially active”.

Consider isosorbide monocaprylate, for which the “antimicrobial activity (in words)” value in [2] (concluded from activity of isosorbide caprylate 1 and inactivity of its other constituents, in particular as fungicide against fungi and yeasts) is given as “significant antimicrobial activity”.

The values are drawn from US9730450B2, “Use of isosorbide monoesters as antimicrobial active substances” (CLARIANT INTERNATIONAL LTD., priority 2011, dated 2017).
